Experimental data reported in patent US8252820B2, “1-orthofluorophenyl substituted 1,2,5-thiazolidinedione derivatives as PTP-as inhibitors” (Novartis AG, priority 2005, dated 2012).
Structures can show the parent of a compound that is named as a salt.

Target: T1, human PTP-1B (Homo sapiens, UniProt P18031)
T1 construct: recombinant human PTP-1B[1-298] or PTP-1B[1-322]
T1 sequence (P18031 1-298 limits assumed): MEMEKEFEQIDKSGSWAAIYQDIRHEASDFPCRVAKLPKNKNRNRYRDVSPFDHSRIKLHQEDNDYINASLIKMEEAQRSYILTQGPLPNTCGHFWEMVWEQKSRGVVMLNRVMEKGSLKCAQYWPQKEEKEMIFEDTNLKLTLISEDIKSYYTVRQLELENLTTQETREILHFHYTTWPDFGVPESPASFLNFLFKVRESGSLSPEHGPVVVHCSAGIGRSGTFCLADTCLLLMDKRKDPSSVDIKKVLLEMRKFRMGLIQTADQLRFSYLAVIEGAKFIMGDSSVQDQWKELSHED
Test: PTP-1B inhibitory activity in vitro (IC50)
Assay type: biochemical
Conditions: inhibitory activity to human PTP-1B
Experimental: Assessment of human PTP-1B (hPTP-1B) activity in the presence of various agents is determined by measuring the amount of inorganic phosphate released from a phosphopeptide substrate using a 96-well microtiter plate format. The assay (100 μL) is performed in an assay buffer comprised of 50 mM TRIS (pH 7.5), 50 mM NaCl, 3 mM DTT at ambient temperature. The assay is typically performed in the presence of 0.4% dimethyl sulfoxide (DMSO). However, concentrations as high as 10% are used with certain poorly soluble compounds. […] Inorganic phosphate, a product of the enzyme reaction, is quantitiated after 15 min as the green color resulting from complexing with the […] reagent and is determined as an A620 using a Molecular Devices (Sunnyvale, Calif.) SpectraMAX Plus spectrophotometer. […] Activity is defined as the net change in absorbance resulting from the activity of the uninhibited hPTP-1B[1-411] minus that of a tube with acid-inactivated hPTP-1B[1-411]. […] Alternatively, the assessment of human PTP-1B activity in the presence of various agents may be determined by measuring the hydrolysis products of known competing substrates. For example, cleavage of substrate para-nitrophenylphosphate (pNPP) results in the release of the yellow-colored para-nitrophenol (pNP) which can be monitored in real time using a spectrophotometer. […] Absorbance at 405 nm is measured using any standard 384 well plate reader. […]

| IC50 [nM] | Structure (SMILES) |
| --- | --- |
| 104 | O=C1CN(c2c(O)cc(CC3CCCCC3)cc2F)S(=O)(=O)N1 [Example No. 13, 5-(4-Cyclohexylmethyl-2-fluoro-6-hydroxyphenyl)-1,1-dioxo-1,2,5-thiadiazolidin-3-one] |
| 158 | O=C1CN(c2c(O)c(F)cc(F)c2F)S(=O)(=O)N1 [Example No. 26, 1,1-Dioxo-5-(2,3,6-trifluoro-6-hydroxy-phenyl)-1,2,5]thiadiazolidin-3-one potassium salt] |
